Assay results reported in PubChem BioAssay AID1259407 (Chemical Carcinogenesis Research Information System (CCRIS), 2018).
“Also recorded” adds a separate entry of the source. The source made the active and inactive calls. The rule behind the calls is not given here.

Tested on: CCRIS mutagenicity, Ames/micronucleus/aberration tests
Test: CCRIS mutagenicity studies
[1] = End Point: In vitro chromosomal aberrations, Test System: Chinese hamster lung (CHL/IU) cells, Metabolic Activation: Rat, Liver, S9, Phenobarbital and 5,6-benzoflavone
[2] = Test System: AMES SALMONELLA TYPHIMURIUM, Strain/Indicator: TA98, Metabolic Activation: NONE, Method: PREINCUBATION
[3] = Test System: AMES SALMONELLA TYPHIMURIUM, Strain/Indicator: TA100, Metabolic Activation: NONE, Method: PREINCUBATION
[4] = Test System: AMES SALMONELLA TYPHIMURIUM, Strain/Indicator: TA100, Metabolic Activation: RAT LIVER S-9, PHENOBARBITAL AND BETA-NAPHTHOFLAVONE, Method: PREINCUBATION
[5] = Test System: AMES SALMONELLA TYPHIMURIUM, Strain/Indicator: TA1535, Metabolic Activation: NONE, Method: PREINCUBATION
[6] = Test System: AMES SALMONELLA TYPHIMURIUM, Strain/Indicator: TA1535, Metabolic Activation: RAT LIVER S-9, PHENOBARBITAL AND BETA-NAPHTHOFLAVONE, Method: PREINCUBATION
[7] = Test System: AMES SALMONELLA TYPHIMURIUM, Strain/Indicator: TA1537, Metabolic Activation: RAT LIVER S-9, PHENOBARBITAL AND BETA-NAPHTHOFLAVONE, Method: PREINCUBATION
[8] = Test System: E. COLI, Strain/Indicator: WP2UVRA/PKM101, Metabolic Activation: NONE, Method: PREINCUBATION
[9] = Test System: E. COLI, Strain/Indicator: WP2UVRA/PKM101, Metabolic Activation: RAT LIVER S-9, PHENOBARBITAL AND BETA-NAPHTHOFLAVONE, Method: PREINCUBATION
[10] = Test System: E. COLI, Strain/Indicator: WP2UVRA, Metabolic Activation: NONE, Method: PREINCUBATION
[11] = Test System: E. COLI, Strain/Indicator: WP2UVRA, Metabolic Activation: RAT LIVER S-9, PHENOBARBITAL AND BETA-NAPHTHOFLAVONE, Method: PREINCUBATION
[12] = Test System: AMES SALMONELLA TYPHIMURIUM, Strain/Indicator: TA100, Metabolic Activation: NONE, Method: STANDARD PLATE

Structure (SMILES): O=C(O)c1cc2ccccc2cc1O
- mutagenic call [1]: active; positive (structural changes and ploidy). precipitation of test chemical at 1.0
- mutagenic call [2]: inactive; negative
- mutagenic call (Test System: AMES SALMONELLA TYPHIMURIUM, Strain/Indicator: TA98, Metabolic Activation: RAT LIVER S-9, PHENOBARBITAL AND BETA-NAPHTHOFLAVONE, Method: PREINCUBATION): inactive; negative
- mutagenic call (Test System: AMES SALMONELLA TYPHIMURIUM, Strain/Indicator: TA98, Metabolic Activation: RAT, LIVER, S-9, KC 500, Method: PREINCUBATION): inactive; negative
- mutagenic call [3]: inactive; negative
- mutagenic call [4]: inactive; negative
- mutagenic call (Test System: AMES SALMONELLA TYPHIMURIUM, Strain/Indicator: TA100, Metabolic Activation: RAT, LIVER, S-9, KC 500, Method: PREINCUBATION): inactive; negative
- mutagenic call [5]: inactive; negative
- mutagenic call [6]: inactive; negative
- mutagenic call (Test System: AMES SALMONELLA TYPHIMURIUM, Strain/Indicator: TA1535, Metabolic Activation: RAT, LIVER, S-9, KC 500, Method: PREINCUBATION): inactive; negative
- mutagenic call [7]: inactive; negative
- mutagenic call (Test System: AMES SALMONELLA TYPHIMURIUM, Strain/Indicator: TA1537, Metabolic Activation: RAT, LIVER, S-9, KC 500, Method: PREINCUBATION): inactive; negative
- mutagenic call (Test System: AMES SALMONELLA TYPHIMURIUM, Strain/Indicator: TA1538, Metabolic Activation: NONE, Method: PREINCUBATION): inactive; negative
- mutagenic call (Test System: AMES SALMONELLA TYPHIMURIUM, Strain/Indicator: TA1538, Metabolic Activation: RAT LIVER S-9, PHENOBARBITAL AND BETA-NAPHTHOFLAVONE, Method: PREINCUBATION): inactive; negative
- mutagenic call (Test System: AMES SALMONELLA TYPHIMURIUM, Strain/Indicator: TA1538, Metabolic Activation: RAT, LIVER, S-9, KC 500, Method: PREINCUBATION): inactive; negative
- mutagenic call [8]: inactive; negative
- mutagenic call [9]: inactive; negative
- mutagenic call (Test System: E. COLI, Strain/Indicator: WP2 UVRA, Metabolic Activation: NONE, Method: PREINCUBATION): inactive; negative
- mutagenic call [10]: inactive; negative
- mutagenic call [11]: inactive; negative
- mutagenic call (Test System: E. COLI, Strain/Indicator: WP2 UVRA, Metabolic Activation: RAT, LIVER, S-9, KC 500, Method: PREINCUBATION): inactive; negative

Structure (SMILES): CCC/C=C/C(=O)O[C@@H]1C(C)(C)C[C@@H]2C34CC3(C(C=O)=C[C@]12O)[C@@H](O)OC4=O (stereo partly specified)
- mutagenic call (Test System: AMES SALMONELLA TYPHIMURIUM, Strain/Indicator: TA98, Metabolic Activation: NONE, Method: SPOT TEST): active; positive
- mutagenic call (Test System: AMES SALMONELLA TYPHIMURIUM, Strain/Indicator: TA98, Metabolic Activation: NONE, Method: STANDARD PLATE): active; positive
- mutagenic call (Test System: AMES SALMONELLA TYPHIMURIUM, Strain/Indicator: TA100, Metabolic Activation: NONE, Method: SPOT TEST): inactive; negative
- mutagenic call [12]: active; positive
- mutagenic call (Test System: AMES SALMONELLA TYPHIMURIUM, Strain/Indicator: TA1535, Metabolic Activation: NONE, Method: SPOT TEST): inactive; negative
- mutagenic call (Test System: AMES SALMONELLA TYPHIMURIUM, Strain/Indicator: TA1538, Metabolic Activation: NONE, Method: SPOT TEST): inactive; negative
- mutagenic call (Test System: AMES SALMONELLA TYPHIMURIUM, Strain/Indicator: TA2637, Metabolic Activation: NONE, Method: STANDARD PLATE): active; positive

Structure (SMILES): Oc1ccc2c(O)c3ccccc3cc2c1O
- mutagenic call (Test System: AMES SALMONELLA TYPHIMURIUM, Strain/Indicator: TA98, Metabolic Activation: RAT, LIVER, S-9, AROCLOR 1254, Method: STANDARD PLATE): inactive; negative
- mutagenic call [12]: inactive; negative
- mutagenic call (Test System: AMES SALMONELLA TYPHIMURIUM, Strain/Indicator: TA100, Metabolic Activation: RAT, LIVER, S-9, AROCLOR 1254, Method: STANDARD PLATE): inactive; negative
- mutagenic call (Test System: AMES SALMONELLA TYPHIMURIUM, Strain/Indicator: TA1535, Metabolic Activation: NONE, Method: STANDARD PLATE): inactive; negative
- mutagenic call (Test System: AMES SALMONELLA TYPHIMURIUM, Strain/Indicator: TA1535, Metabolic Activation: RAT, LIVER, S-9, AROCLOR 1254, Method: STANDARD PLATE): inactive; negative
- mutagenic call (Test System: AMES SALMONELLA TYPHIMURIUM, Strain/Indicator: TA1537, Metabolic Activation: NONE, Method: STANDARD PLATE): active; positive
- mutagenic call (Test System: AMES SALMONELLA TYPHIMURIUM, Strain/Indicator: TA1538, Metabolic Activation: NONE, Method: STANDARD PLATE): inactive; negative
- mutagenic call (Test System: AMES SALMONELLA TYPHIMURIUM, Strain/Indicator: TA1538, Metabolic Activation: RAT, LIVER, S-9, AROCLOR 1254, Method: STANDARD PLATE): inactive; negative

Structure (SMILES): OCc1ccc(Br)cc1
- mutagenic call [12]: inactive; negative

Structure (SMILES): Brc1ccc(CN2[C@@H]3c4ccccc4-c4ccccc4[C@@H]32)cc1 (stereo partly specified)
- mutagenic call [12]: active; positive

Structure (SMILES): [O-][n+]1ccc2cnncc2c1
- mutagenic call [2]: active; positive
- mutagenic call (Test System: AMES SALMONELLA TYPHIMURIUM, Strain/Indicator: TA98, Metabolic Activation: RAT, LIVER, S-9, PCB, Method: PREINCUBATION): active; positive
- mutagenic call [3]: inactive; negative
- mutagenic call (Test System: AMES SALMONELLA TYPHIMURIUM, Strain/Indicator: TA100, Metabolic Activation: RAT, LIVER, S-9, PCB, Method: PREINCUBATION): active; positive

Structure (SMILES): O=C(NO)OCc1ccccc1
- mutagenic call (Test System: E. COLI, Strain/Indicator: WP2 UVRA, Metabolic Activation: NONE, Method: FLUCTUATION TEST): active; positive

Structure (SMILES): CC(C)(C)CC(C)(C)c1ccc(O)cc1
- mutagenic call (End Point: In vitro chromosomal aberrations, Test System: Chinese hamster lung (CHL/IU) cells, Metabolic Activation: None): inactive; negative. toxic at 0.04 mg/ml; also recorded: inactive; negative. toxic at 0.030 and 0.036 mg/ml
- mutagenic call [1]: active; positive (structural changes and ploidy). toxic at 0.06 mg/ml.
- mutagenic call [2]: inactive; negative
- mutagenic call (Test System: AMES SALMONELLA TYPHIMURIUM, Strain/Indicator: TA98, Metabolic Activation: RAT LIVER S-9, PHENOBARBITAL AND BETA-NAPHTHOVLAVONE, Method: PREINCUBATION): inactive; negative
- mutagenic call [3]: inactive; negative
- mutagenic call [4]: inactive; negative
- mutagenic call (Test System: AMES SALMONELLA TYPHIMURIUM, Strain/Indicator: TA102, Metabolic Activation: NONE, Method: PREINCUBATION): inactive; negative
- mutagenic call (Test System: AMES SALMONELLA TYPHIMURIUM, Strain/Indicator: TA102, Metabolic Activation: RAT LIVER S-9, PHENOBARBITAL AND BETA-NAPHTHOFLAVONE, Method: PREINCUBATION): inactive; negative
- mutagenic call (Test System: AMES SALMONELLA TYPHIMURIUM, Strain/Indicator: TA104, Metabolic Activation: NONE, Method: PREINCUBATION): inactive; negative
- mutagenic call (Test System: AMES SALMONELLA TYPHIMURIUM, Strain/Indicator: TA104, Metabolic Activation: RAT LIVER S-9, PHENOBARBITAL AND BETA-NAPHTHOFLAVONE, Method: PREINCUBATION): inactive; negative
- mutagenic call [5]: inactive; negative
- mutagenic call [6]: inactive; negative
- mutagenic call (Test System: AMES SALMONELLA TYPHIMURIUM, Strain/Indicator: TA1537, Metabolic Activation: NONE, Method: PREINCUBATION): inactive; negative
- mutagenic call [7]: inactive; negative
- mutagenic call [8]: inactive; negative
- mutagenic call [9]: inactive; negative
- mutagenic call [10]: inactive; negative
- mutagenic call [11]: inactive; negative
